Measurements taken from ChEMBL document CHEMBL5724914, “Linking interpersonal differences in gut microbiota composition and drug biotransformation activity” (2024).

Assay: (§1) The drug is tested on Z-025 corresponding to rabbit gut metagenome with ENA study accession number: PRJEB37062 and ENA sample accession number: ERS12561824 for biotransformation under anaerobic condition. The drug concentrations were measured over 9 timepoints collected between 0 and 24 hours of incubation by liquid-chromatography-coupled mass spectrometry (LC–MS)
Details: 2 µM
Note: call rule not given here.

Bacterial Biotransformation | SMILES
Compound metabolized | COc1ccccc1OCCNCC(O)COc1cccc2[nH]c3ccccc3c12 (stereo not given) [CARVEDILOL]
Compound NOT metabolized | CN1CCC[C@@H]1CCO[C@](C)(c1ccccc1)c1ccc(Cl)cc1.O=C(O)/C=C/C(=O)O [CLEMASTINE FUMARATE]

Assay: as §1, with “Z-023” for “Z-025”, “to” for “to rabbit gut”, “ERS12561822” for “ERS12561824”
Details: 2 µM

Bacterial Biotransformation | SMILES
Compound metabolized | COc1ccccc1OCCNCC(O)COc1cccc2[nH]c3ccccc3c12 (stereo not given) [CARVEDILOL]
Compound NOT metabolized | CN1CCC[C@@H]1CCO[C@](C)(c1ccccc1)c1ccc(Cl)cc1.O=C(O)/C=C/C(=O)O [CLEMASTINE FUMARATE]

Assay: as §1, with “Z-022” for “Z-025”, “mouse” for “rabbit”, “ERS12561821” for “ERS12561824”
Details: 2 µM

Bacterial Biotransformation | SMILES
Compound NOT metabolized | COc1ccccc1OCCNCC(O)COc1cccc2[nH]c3ccccc3c12 (stereo not given) [CARVEDILOL]
Compound NOT metabolized | CN1CCC[C@@H]1CCO[C@](C)(c1ccccc1)c1ccc(Cl)cc1.O=C(O)/C=C/C(=O)O [CLEMASTINE FUMARATE]

Assay: as §1, with “Z-013” for “Z-025”, “ERS12561813” for “ERS12561824”
Details: 2 µM

Bacterial Biotransformation | SMILES
Compound NOT metabolized | COc1ccccc1OCCNCC(O)COc1cccc2[nH]c3ccccc3c12 (stereo not given) [CARVEDILOL]
Compound NOT metabolized | CN1CCC[C@@H]1CCO[C@](C)(c1ccccc1)c1ccc(Cl)cc1.O=C(O)/C=C/C(=O)O [CLEMASTINE FUMARATE]

Assay: as §1, with “Z-009” for “Z-025”, “pig” for “rabbit”, “ERS12561809” for “ERS12561824”
Details: 2 µM

Bacterial Biotransformation | SMILES
Compound NOT metabolized | COc1ccccc1OCCNCC(O)COc1cccc2[nH]c3ccccc3c12 (stereo not given) [CARVEDILOL]
Compound NOT metabolized | CN1CCC[C@@H]1CCO[C@](C)(c1ccccc1)c1ccc(Cl)cc1.O=C(O)/C=C/C(=O)O [CLEMASTINE FUMARATE]

Assay: as §1, with “Z-007” for “Z-025”, “rat” for “rabbit”, “ERS12561807” for “ERS12561824”
Details: 2 µM

Bacterial Biotransformation | SMILES
Compound NOT metabolized | COc1ccccc1OCCNCC(O)COc1cccc2[nH]c3ccccc3c12 (stereo not given) [CARVEDILOL]
Compound NOT metabolized | CN1CCC[C@@H]1CCO[C@](C)(c1ccccc1)c1ccc(Cl)cc1.O=C(O)/C=C/C(=O)O [CLEMASTINE FUMARATE]

Assay: as §1, with “Z-006” for “Z-025”, “mouse” for “rabbit”, “ERS12561806” for “ERS12561824”
Details: 2 µM

Bacterial Biotransformation | SMILES
Compound NOT metabolized | COc1ccccc1OCCNCC(O)COc1cccc2[nH]c3ccccc3c12 (stereo not given) [CARVEDILOL]
Compound NOT metabolized | CN1CCC[C@@H]1CCO[C@](C)(c1ccccc1)c1ccc(Cl)cc1.O=C(O)/C=C/C(=O)O [CLEMASTINE FUMARATE]

Assay: as §1, with “Z-004” for “Z-025”, “to” for “to rabbit gut”, “ERS12561804” for “ERS12561824”
Details: 2 µM

Bacterial Biotransformation | SMILES
Compound NOT metabolized | COc1ccccc1OCCNCC(O)COc1cccc2[nH]c3ccccc3c12 (stereo not given) [CARVEDILOL]
Compound NOT metabolized | CN1CCC[C@@H]1CCO[C@](C)(c1ccccc1)c1ccc(Cl)cc1.O=C(O)/C=C/C(=O)O [CLEMASTINE FUMARATE]

Assay: as §1, with “WLS-350” for “Z-025”, “human” for “rabbit”, “ERS12561789” for “ERS12561824”
Details: 2 µM

Bacterial Biotransformation | SMILES
Compound metabolized | COc1ccccc1OCCNCC(O)COc1cccc2[nH]c3ccccc3c12 (stereo not given) [CARVEDILOL]
Compound metabolized | CN1CCC[C@@H]1CCO[C@](C)(c1ccccc1)c1ccc(Cl)cc1.O=C(O)/C=C/C(=O)O [CLEMASTINE FUMARATE]

Assay: as §1, with “WLS-073” for “Z-025”, “human” for “rabbit”, “ERS12561749” for “ERS12561824”
Details: 2 µM

Bacterial Biotransformation | SMILES
Compound metabolized | COc1ccccc1OCCNCC(O)COc1cccc2[nH]c3ccccc3c12 (stereo not given) [CARVEDILOL]
Compound NOT metabolized | CN1CCC[C@@H]1CCO[C@](C)(c1ccccc1)c1ccc(Cl)cc1.O=C(O)/C=C/C(=O)O [CLEMASTINE FUMARATE]

Assay: as §1, with “WLS-052” for “Z-025”, “human” for “rabbit”, “ERS12561747” for “ERS12561824”
Details: 2 µM

Bacterial Biotransformation | SMILES
Compound metabolized | COc1ccccc1OCCNCC(O)COc1cccc2[nH]c3ccccc3c12 (stereo not given) [CARVEDILOL]
Compound NOT metabolized | CN1CCC[C@@H]1CCO[C@](C)(c1ccccc1)c1ccc(Cl)cc1.O=C(O)/C=C/C(=O)O [CLEMASTINE FUMARATE]

Assay: as §1, with “WLS-010” for “Z-025”, “human” for “rabbit”, “ERS12561743” for “ERS12561824”
Details: 2 µM

Bacterial Biotransformation | SMILES
Compound metabolized | COc1ccccc1OCCNCC(O)COc1cccc2[nH]c3ccccc3c12 (stereo not given) [CARVEDILOL]
Compound NOT metabolized | CN1CCC[C@@H]1CCO[C@](C)(c1ccccc1)c1ccc(Cl)cc1.O=C(O)/C=C/C(=O)O [CLEMASTINE FUMARATE]

Details: human gut metagenome, 24 h, 2 µM

Bacterial Biotransformation | SMILES
Compound metabolized | COc1ccccc1OCCNCC(O)COc1cccc2[nH]c3ccccc3c12 (stereo not given) [CARVEDILOL]
Compound metabolized | CN1CCC[C@@H]1CCO[C@](C)(c1ccccc1)c1ccc(Cl)cc1.O=C(O)/C=C/C(=O)O [CLEMASTINE FUMARATE]

Details: human gut metagenome, 24 h, 2 µM
Remark: another data set of the same source

Bacterial Biotransformation | SMILES
Compound metabolized | COc1ccccc1OCCNCC(O)COc1cccc2[nH]c3ccccc3c12 (stereo not given) [CARVEDILOL]
Compound NOT metabolized | CN1CCC[C@@H]1CCO[C@](C)(c1ccccc1)c1ccc(Cl)cc1.O=C(O)/C=C/C(=O)O [CLEMASTINE FUMARATE]

Details: human gut metagenome, 24 h, 2 µM
Remark: another data set of the same source

Bacterial Biotransformation | SMILES
Compound metabolized | COc1ccccc1OCCNCC(O)COc1cccc2[nH]c3ccccc3c12 (stereo not given) [CARVEDILOL]
Compound NOT metabolized | CN1CCC[C@@H]1CCO[C@](C)(c1ccccc1)c1ccc(Cl)cc1.O=C(O)/C=C/C(=O)O [CLEMASTINE FUMARATE]

Details: human gut metagenome, 24 h, 2 µM
Remark: another data set of the same source

Bacterial Biotransformation | SMILES
Compound metabolized | COc1ccccc1OCCNCC(O)COc1cccc2[nH]c3ccccc3c12 (stereo not given) [CARVEDILOL]
Compound metabolized | CN1CCC[C@@H]1CCO[C@](C)(c1ccccc1)c1ccc(Cl)cc1.O=C(O)/C=C/C(=O)O [CLEMASTINE FUMARATE]

Details: human gut metagenome, 24 h, 2 µM
Remark: another data set of the same source

Bacterial Biotransformation | SMILES
Compound metabolized | COc1ccccc1OCCNCC(O)COc1cccc2[nH]c3ccccc3c12 (stereo not given) [CARVEDILOL]
Compound metabolized | CN1CCC[C@@H]1CCO[C@](C)(c1ccccc1)c1ccc(Cl)cc1.O=C(O)/C=C/C(=O)O [CLEMASTINE FUMARATE]

Details: human gut metagenome, 24 h, 2 µM
Remark: another data set of the same source

Bacterial Biotransformation | SMILES
Compound NOT metabolized | COc1ccccc1OCCNCC(O)COc1cccc2[nH]c3ccccc3c12 (stereo not given) [CARVEDILOL]
Compound NOT metabolized | CN1CCC[C@@H]1CCO[C@](C)(c1ccccc1)c1ccc(Cl)cc1.O=C(O)/C=C/C(=O)O [CLEMASTINE FUMARATE]

Details: human gut metagenome, 24 h, 2 µM
Remark: another data set of the same source

Bacterial Biotransformation | SMILES
Compound NOT metabolized | COc1ccccc1OCCNCC(O)COc1cccc2[nH]c3ccccc3c12 (stereo not given) [CARVEDILOL]
Compound metabolized | CN1CCC[C@@H]1CCO[C@](C)(c1ccccc1)c1ccc(Cl)cc1.O=C(O)/C=C/C(=O)O [CLEMASTINE FUMARATE]

Details: human gut metagenome, 24 h, 2 µM
Remark: another data set of the same source

Bacterial Biotransformation | SMILES
Compound metabolized | COc1ccccc1OCCNCC(O)COc1cccc2[nH]c3ccccc3c12 (stereo not given) [CARVEDILOL]
Compound NOT metabolized | CN1CCC[C@@H]1CCO[C@](C)(c1ccccc1)c1ccc(Cl)cc1.O=C(O)/C=C/C(=O)O [CLEMASTINE FUMARATE]
